The record followed here is PubChem BioAssay AID252 (DTP/NCI, 2004).

“And” between values parts separate entries of the source, which are not always exact repeats. Equal entries are not always repeated. Toxic doses and inconclusive results are not listed.

The test relates to BDF1 mice, intracerebral L1210 leukemia, survival T/C. The experiment in a line: NCI In Vivo Anticancer Drug Screen. Data for tumor model L1210 Leukemia (intracerebral) in B6D2F1 (BDF1) mice. The note with it: higher = longer survival. A digest of the protocol:
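Survival measured in treated and vehicle-control tumour-bearing mice; value = T/C.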

As for `CC(=O)Nc1ccc2c(Nc3ccc(NS(C)(=O)=O)cc3)c3ccccc3nc2c1`, the T/C is, setting by setting: (endpoint: mean survival time, dose: 1.5 mg/kg/injection, schedule: Q01DX009 (ip), vehicle: saline) 89 % of control; (endpoint: mean survival time, dose: 1.5 mg/kg/injection, schedule: Q01DX009 (sc), vehicle: saline) 98 % of control; (endpoint: mean survival time, dose: 3.0 mg/kg/injection, schedule: Q01DX009 (ip), vehicle: saline) 98 % of control; (endpoint: mean survival time, dose: 3.0 mg/kg/injection, schedule: Q01DX009 (sc), vehicle: saline) 105 % of control; (endpoint: mean survival time, dose: 6.25 mg/kg/injection, schedule: Q01DX009 (ip), vehicle: saline) 86 % of control; (endpoint: mean survival time, dose: 6.25 mg/kg/injection, schedule: Q01DX009 (sc), vehicle: saline) 109 % of control. Also, the T/C (endpoint: mean survival time, dose: 12.5 mg/kg/injection, schedule: Q01DX009 (sc), vehicle: saline) was 98 % of control.
As for `CCCCCCCCCCCCCCCC(=O)OCC1OC(n2ccc(N)nc2=O)C(O)C1O` (centres undefined), the T/C by setting is: (endpoint: mean survival time, dose: 5.0 mg/kg/injection, schedule: Q01DX005 (ip), vehicle: other) 111 % of control (2×) and 117 % of control; (endpoint: mean survival time, dose: 20.0 mg/kg/injection, schedule: Q01DX005 (ip), vehicle: other) 154 % of control and 177 % of control and 180 % of control; (endpoint: mean survival time, dose: 25.0 mg/kg/injection, schedule: Q01DX001 (ip), vehicle: other) 110 % of control and 112 % of control and 116 % of control; (endpoint: mean survival time, dose: 25.0 mg/kg/injection, schedule: Q01DX005 (ip), vehicle: other) 171 % of control and 192 % of control and 202 % of control; (endpoint: mean survival time, dose: 30.0 mg/kg/injection, schedule: Q01DX005 (ip), vehicle: other) 169 % of control and 204 % of control and 242 % of control; (endpoint: mean survival time, dose: 35.0 mg/kg/injection, schedule: Q01DX005 (ip), vehicle: other) 201 % of control and 211 % of control and 214 % of control. Moreover, the T/C is, setting by setting: (endpoint: mean survival time, dose: 100.0 mg/kg/injection, schedule: Q01DX001 (ip), vehicle: other) 166 % of control; (endpoint: mean survival time, dose: 150.0 mg/kg/injection, schedule: Q01DX001 (ip), vehicle: other) 173 % of control and 191 % of control and 213 % of control; (endpoint: mean survival time, dose: 200.0 mg/kg/injection, schedule: Q01DX001 (ip), vehicle: other) 170 % of control and 216 % of control and 242 % of control; (endpoint: mean survival time, dose: 250.0 mg/kg/injection, schedule: Q01DX001 (ip), vehicle: other) 161 % of control and 195 % of control and 222 % of control; (endpoint: median survival time, dose: 25.0 mg/kg/injection, schedule: Q01DX009 (ip), vehicle: saline with Tween-80) 295 % of control; (endpoint: median survival time, dose: 50.0 mg/kg/injection, schedule: Q01DX009 (ip), vehicle: saline with Tween-80) 106 % of control.
For the molecule `O=NN(CCCl)C(=O)CCCCC(=O)N(CCCl)N=O`, the T/C is 95 % of control (endpoint: mean survival time, dose: 44.0 mg/kg/injection, schedule: Q01DX001 (ip), vehicle: carboxymethylcellulose (CMC)); 96 % of control (endpoint: mean survival time, dose: 67.0 mg/kg/injection, schedule: Q01DX001 (ip), vehicle: carboxymethylcellulose (CMC)); 94 % of control (endpoint: mean survival time, dose: 100.0 mg/kg/injection, schedule: Q01DX001 (ip), vehicle: carboxymethylcellulose (CMC)).
As for `CN(Cc1cnc2nc(N)nc(N)c2n1)c1c(Cl)cc(C(=O)NC(CCC(=O)O)C(=O)O)cc1Cl` (centres undefined), the T/C runs as follows: (endpoint: mean survival time, dose: 285.0 mg/kg/injection, schedule: Q01DX001 (ip), vehicle: carboxymethylcellulose (CMC)) 91 % of control; (endpoint: mean survival time, dose: 434.0 mg/kg/injection, schedule: Q01DX001 (ip), vehicle: carboxymethylcellulose (CMC)) 90 % of control; (endpoint: mean survival time, dose: 647.0 mg/kg/injection, schedule: Q01DX001 (ip), vehicle: carboxymethylcellulose (CMC)) 95 % of control.
As for `COc1cccnc1/C=N/NC(N)=S`, the T/C by setting is: (endpoint: median survival time, dose: 1.5 mg/kg/injection, schedule: Q01DX009 (ip), vehicle: saline with Tween-80) 101 % of control; (endpoint: median survival time, dose: 3.0 mg/kg/injection, schedule: Q01DX009 (ip), vehicle: saline with Tween-80) 103 % of control; (endpoint: median survival time, dose: 6.0 mg/kg/injection, schedule: Q01DX009 (ip), vehicle: saline with Tween-80) 110 % of control; (endpoint: median survival time, dose: 12.0 mg/kg/injection, schedule: Q01DX009 (ip), vehicle: saline with Tween-80) 153 % of control.
For the molecule `O=C1C(N2CC2)=C(N2CC2)C(=O)C(N2CC2)=C1N1CC1`, the T/C is, setting by setting: (endpoint: mean survival time, dose: 0.02 mg/kg/injection, schedule: Q01DX009 (ip), vehicle: saline) 102 % of control; (endpoint: mean survival time, dose: 0.04 mg/kg/injection, schedule: Q01DX009 (ip), vehicle: saline) 120 % of control; (endpoint: mean survival time, dose: 0.16 mg/kg/injection, schedule: Q01DX009 (ip), vehicle: saline) 112 % of control.
As to `[N-]=[N+]=CC(=O)NCC(=O)NN`, the T/C is, setting by setting: (endpoint: mean survival time, dose: 300.0 mg/kg/injection, schedule: Q01DX Z (ip), vehicle: water) 101 % of control; (endpoint: mean survival time, dose: 400.0 mg/kg/injection, schedule: Q01DX Z (ip), vehicle: water) 87 % of control; (endpoint: mean survival time, dose: 500.0 mg/kg/injection, schedule: Q01DX Z (ip), vehicle: water) 87 % of control.
With `CS(=O)(=O)OCCCCOS(C)(=O)=O`, the T/C (endpoint: mean survival time, dose: 27.0 mg/kg/injection, schedule: Q01DX001 (ip), vehicle: carboxymethylcellulose (CMC)) is 95 % of control; the T/C (endpoint: mean survival time, dose: 41.0 mg/kg/injection, schedule: Q01DX001 (ip), vehicle: carboxymethylcellulose (CMC)) is 93 % of control; the T/C (endpoint: mean survival time, dose: 61.0 mg/kg/injection, schedule: Q01DX001 (ip), vehicle: carboxymethylcellulose (CMC)) was 94 % of control.
Take `O=C(Nc1ccc(C2=NCCN2)cc1)c1cccc(C(=O)Nc2ccc(C3=NCCN3)cc2)c1`: the T/C (endpoint: mean survival time, dose: 31.0 mg/kg/injection, schedule: Q01DX Z (ip), vehicle: water) is 89 % of control.
On to `CN(N=O)C(=O)Nc1ccc(C(=O)O)cc1`, for which the T/C was 110 % of control (endpoint: mean survival time, dose: 60.0 mg/kg/injection, schedule: Q01DX001 (ip), vehicle: carboxymethylcellulose (CMC)) and 114 % of control (endpoint: mean survival time, dose: 120.0 mg/kg/injection, schedule: Q01DX001 (ip), vehicle: carboxymethylcellulose (CMC)).
In the case of `CC(=O)OC1CCC(NC(=O)N(CCF)N=O)CC1` (centres undefined), the T/C runs as follows: (endpoint: mean survival time, dose: 24.0 mg/kg/injection, schedule: Q01DX001 (ip), vehicle: other) 276 % of control; (endpoint: mean survival time, dose: 32.0 mg/kg/injection, schedule: Q01DX001 (oral), vehicle: other) 516 % of control; (endpoint: mean survival time, dose: 36.0 mg/kg/injection, schedule: Q01DX001 (ip), vehicle: other) 509 % of control.
Regarding `CC[n+]1c(-c2ccccc2)c2cc(N)ccc2c2ccc(N)cc21`, the T/C is, setting by setting: (endpoint: mean survival time, dose: 1.25 mg/kg/injection, schedule: Q01DX Z (ip), vehicle: saline) 104 % of control; (endpoint: mean survival time, dose: 2.5 mg/kg/injection, schedule: Q01DX Z (ip), vehicle: saline) 100 % of control; (endpoint: mean survival time, dose: 5.0 mg/kg/injection, schedule: Q01DX Z (ip), vehicle: saline) 101 % of control; (endpoint: mean survival time, dose: 7.5 mg/kg/injection, schedule: Q01DX Z (ip), vehicle: saline) 100 % of control; (endpoint: mean survival time, dose: 15.0 mg/kg/injection, schedule: Q01DX Z (ip), vehicle: saline) 86 % of control.
